Key:
K562 = experiment: Cytotoxicity against human K562 cells after 48 hrs by sulforhodamine B method; format: functional, cell-based; settings: K562, 48 h
[1] = Cytotoxicity against human SKLU1 cells after 48 hrs by sulforhodamine B method; format: functional, cell-based; settings: SK-LU-1, 48 h
Mus musculus = experiment: Antiinflammatory activity in CD1 mouse assessed as reduction of TPA-induced ear edema per ear after 4 hrs; format: functional, organism-based
U-251 = experiment: Cytotoxicity against human U251 cells after 48 hrs by sulforhodamine B method; format: functional, cell-based; settings: U-251, 48 h
PC-3 = experiment: Cytotoxicity against human PC3 cells after 48 hrs by sulforhodamine B method; format: functional, cell-based; settings: PC-3, 48 h
MCF7 = experiment: Cytotoxicity against human MCF7 cells after 48 hrs by sulforhodamine B method; format: functional, cell-based; settings: MCF7, 48 h
[2] = Cytotoxicity against human HCT15 cells after 48 hrs by sulforhodamine B method; format: functional, cell-based; settings: HCT-15, 48 h

SMILES	IC50 (K562)	IC50 [1]	IC50 (Mus musculus)	IC50 (U-251)	IC50 (PC-3)	IC50 (MCF7)	IC50 [2]
C[C@]12C[C@H](c3ccoc3)OC(=O)[C@H]1CC[C@@]13COC(=O)C1=CC=C[C@@]32O	> 10 µM	> 10 µM	> 1 µmol	> 10 µM	> 10 µM	> 10 µM	> 10 µM
C[C@]12C[C@H](c3ccoc3)OC(=O)[C@H]1CCC1=C(/C=C\CC2=O)C(=O)OC1	> 10 µM	> 10 µM	> 1 µmol	> 10 µM	> 10 µM	> 10 µM	> 10 µM
